Measurements reported in patent EP0284725A2, “Indoxyl-beta-d-glucuronide and method for making” (QUEEN'S UNIVERSITY AT KINGSTON, priority 1987, dated 1988).
Where a name gives a salt, the structure may show the parent alone.

Experiments:
[1] = system: Klebsiella pneumonia; assay: Enzyme reaction of bacteria on m-TECB based agar media in microtiter plates, read visually by colour; format: cell-based; details: K. pneumonia
Description: (§1) Enzyme activity was detected on the m-TEC medium of Dufour et al. (Dufour, A.P., E.R. Strickland and V.J. Cabelli. 1981. Membrane filter method for enumerating Eseherichia coli. Appl. Envion. Microbiol. 41: 1152-1158) prepared with the following modifications: bromocresol purple, bromophenol red and lactose were omitted; the modified m-TEC medium contained (g/1 proteose peptone No. 3, 5.0g; yeast extract 3.0g; glycerol 10.0g; NaCl 7.5g; K2HPO4 3.3g; KH2PO4 1.0g; sodium lauryl sulfate 0.2g; sodium deoxycholate 0.10g and agar 15.0g. The medium was autoclaved for 15 minutes at 121°C. The following chemicals, purchased from the Sigma Chemical Company, St.Louis. Mo., were added separately to the modified m-TEC medium after autoclaving and cooling to 50°C - 60°C: para-nitrophenyl-β- ? -glucuronide 400 mg/l; indoxyl-β- ? -glucoside 250 mg/l. Indoxyl-β- ? -glucuronide, prepared as described in Example 8, was added at 350-400 mg/l. The four agar media used in this study will be referred to as follows: modified m-TEC as m-TECB medium; the formulations of indoxyl-β-D -glucuronide as IGA, para-nitrophenyl-β-D-glucuronide as PNGA, and indoxyl-β-D -glucoside (indican) as IA media.
(§2) In this experiment, four organisms were tested for β- D -glucuronidase and β- D -glucosidase activity: American Type Culture Collection (ATCC) strains Escherichia Coli 35218 and Klebsiella pneumonia 13883; environmental isolates that have been characterized in our laboratory, Escherichia coli 83-17350 and Klebsiella pneumonia PHL.
(§3) A series of m-TECB agar basal media microtiter plates were prepared, using the m-TECB base media described in Example 9, and indoxyl-β- D -glucuronide, p-nitrophenyl-β- D -glucuronide or indoxyl-β-D-glucoside was added to respective plates. Specific bacteria from controlled sources, described above, were applied to the plates and incubated at 45°C for 16 2 hours.

[2] = system: Escherichia coli; assay: as above; format: cell-based
Description: as §1, §2, §3

Structure (SMILES) | colour / reactivity [1] | colour / reactivity ([2]; Environmental and ATCC strains of E.coli) | hydrolysis by the glucuronidase activity of E. coli [2]
OC[C@H]1O[C@@H](Oc2c[nH]c3ccccc23)[C@H](O)[C@@H](O)[C@@H]1O [indican, indoxyl-β-D -glucoside] | blue colour | no reactivity | –
O=C(O)[C@H]1O[C@@H](Oc2c[nH]c3ccccc23)[C@H](O)[C@@H](O)[C@@H]1O [indoxyl-β- D -glucuronide, Indoxyl-β-D -Glucuronide Sodium Salt] | – | – | readily and specifically hydrolysed
